Assay results from ChEMBL document CHEMBL1201862, “PubChem BioAssay data set” (2004).
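Protocol summary: plate cells (96-well), add compound at 5 concentrations, incubate 48 h, interpolate endpoints linearly. GI50 is the concentration that inhibits growth by half.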 Activity calls are given as the source filed them. Cut-off read from the data, not from the text of the source: active = GI50 up to about 1.1 µM and inactive = higher. Where a SMILES comes first, the peptide text is derived from it. [ ]: non-standard residue; d: D form. Aoe = N[C@@H](CCCCCC(=O)[C@@H]1CO1)C(=O)O

Key:
Experiment in all cases: NCI anticancer screen, dose series, 48 h
[1] = test system: 786-0
[2] = test system: A549
[3] = test system: ACHN
[4] = test system: BT-549
[5] = test system: CAKI-1
[6] = test system: CCRF-CEM
[7] = test system: COLO 205
[8] = test system: DU-145
[9] = test system: EKVX
[10] = test system: HCT-116
[11] = test system: HCT-15
[12] = test system: HL-60
[13] = test system: HOP-62
[14] = test system: HOP-92
[15] = test system: HT-29
[16] = test system: Hs-578T
[17] = test system: IGROV-1
[18] = test system: K562
[19] = test system: KM12
[20] = test system: LOX IMVI
[21] = test system: M14
[22] = test system: MDA-MB-231
[23] = test system: MDA-MB-435
[24] = test system: MDA-N
[25] = test system: MOLT-4
[26] = test system: Malme-3M
[27] = test system: NCI-H226
[28] = test system: NCI-H23
[29] = test system: NCI-H522
[30] = test system: NCI/ADR-RES
[31] = test system: OVCAR-3
[32] = test system: OVCAR-4
[33] = test system: OVCAR-5
[34] = test system: OVCAR-8
[35] = test system: PC-3
[36] = test system: RPMI-8226
[37] = test system: RXF 393
[38] = test system: SF-268
[39] = test system: SF-295
[40] = test system: SK-MEL-28
[41] = test system: SK-MEL-2
[42] = test system: SK-MEL-5
[43] = test system: SK-OV-3
[44] = test system: SN12C
[45] = test system: SNB-19
[46] = test system: SNB-75
[47] = test system: SR
[48] = test system: SW-620
[49] = test system: T47D
[50] = test system: TK-10
[51] = test system: U-251
[52] = test system: UACC-257
[53] = test system: UACC-62
[54] = test system: UO-31
[55] = test system: HCC 2998
[56] = test system: MCF7
[57] = test system: NCI-H460
[58] = test system: SF-539
[59] = test system: A498

N=C(c1ccc(-c2cn3cc(C(=N)N4CCCC4)ccc3n2)cc1)N1CCCC1
GI50 [1]: > 100 µM (inactive)
GI50 [2]: > 100 µM (inactive)
GI50 [3]: > 100 µM (inactive)
GI50 [4]: > 100 µM (inactive)
GI50 [5]: > 100 µM (inactive)
GI50 [6]: 20.8 µM (inactive)
GI50 [7]: > 100 µM (inactive)
GI50 [8]: > 100 µM (inactive)
GI50 [9]: > 100 µM (inactive)
GI50 [10]: > 100 µM (inactive)
GI50 [11]: > 100 µM
GI50 [12]: 0.0303 µM (active)
GI50 [13]: > 100 µM (inactive)
GI50 [14]: 3.86 µM (inactive)
GI50 [15]: > 100 µM (inactive)
GI50 [16]: > 100 µM (inactive)
GI50 [17]: > 100 µM (inactive)
GI50 [18]: > 100 µM (inactive)
GI50 [19]: > 100 µM (inactive)
GI50 [20]: > 100 µM (inactive)
GI50 [21]: > 100 µM (inactive)
GI50 [22]: > 100 µM (inactive)
GI50 [23]: > 100 µM (inactive)
GI50 [24]: > 100 µM (inactive)
GI50 [25]: > 100 µM (inactive)
GI50 [26]: > 100 µM (inactive)
GI50 [27]: > 100 µM (inactive)
GI50 [28]: > 100 µM (inactive)
GI50 [29]: > 100 µM (inactive)
GI50 [30]: > 100 µM (inactive)
GI50 [31]: > 100 µM (inactive)
GI50 [32]: > 100 µM (inactive)
GI50 [33]: > 100 µM (inactive)
GI50 [34]: > 100 µM (inactive)
GI50 [35]: > 100 µM (inactive)
GI50 [36]: > 100 µM (inactive)
GI50 [37]: > 100 µM (inactive)
GI50 [38]: > 100 µM (inactive)
GI50 [39]: > 100 µM (inactive)
GI50 [40]: > 100 µM (inactive)
GI50 [41]: > 100 µM (inactive)
GI50 [42]: > 100 µM (inactive)
GI50 [43]: > 100 µM (inactive)
GI50 [44]: > 100 µM (inactive)
GI50 [45]: > 100 µM (inactive)
GI50 [46]: > 100 µM (inactive)
GI50 [47]: > 100 µM (inactive)
GI50 [48]: > 100 µM (inactive)
GI50 [49]: > 100 µM (inactive)
GI50 [50]: > 100 µM (inactive)
GI50 [51]: > 100 µM (inactive)
GI50 [52]: > 100 µM (inactive)
GI50 [53]: > 100 µM (inactive)
GI50 [54]: > 100 µM (inactive)

O=C(O)CCCc1ccc2c(c1)C(C(=O)O)CC2 (configuration not stated)
GI50 [1]: > 100 µM (inactive)
GI50 [2]: > 100 µM (inactive)
GI50 [3]: > 100 µM (inactive)
GI50 [4]: 76 µM (inactive)
GI50 [5]: > 100 µM (inactive)
GI50 [6]: > 100 µM (inactive)
GI50 [7]: > 100 µM (inactive)
GI50 [8]: > 100 µM (inactive)
GI50 [9]: > 100 µM (inactive)
GI50 [55]: > 100 µM (inactive)
GI50 [10]: > 100 µM (inactive)
GI50 [11]: > 100 µM
GI50 [12]: > 100 µM (inactive)
GI50 [13]: > 100 µM (inactive)
GI50 [15]: > 100 µM (inactive)
GI50 [16]: > 100 µM (inactive)
GI50 [17]: > 100 µM (inactive)
GI50 [18]: > 100 µM (inactive)
GI50 [19]: > 100 µM (inactive)
GI50 [20]: > 100 µM (inactive)
GI50 [21]: > 100 µM (inactive)
GI50 [56]: > 100 µM (inactive)
GI50 [22]: > 100 µM (inactive)
GI50 [24]: > 100 µM (inactive)
GI50 [25]: > 100 µM (inactive)
GI50 [26]: > 100 µM (inactive)
GI50 [27]: > 100 µM (inactive)
GI50 [28]: > 100 µM (inactive)
GI50 [57]: > 100 µM (inactive)
GI50 [29]: > 100 µM (inactive)
GI50 [30]: > 100 µM (inactive)
GI50 [32]: > 100 µM (inactive)
GI50 [33]: > 100 µM (inactive)
GI50 [34]: > 100 µM (inactive)
GI50 [35]: > 100 µM (inactive)
GI50 [36]: > 100 µM (inactive)
GI50 [37]: > 100 µM (inactive)
GI50 [38]: > 100 µM (inactive)
GI50 [39]: > 100 µM (inactive)
GI50 [58]: > 100 µM (inactive)
GI50 [40]: > 100 µM (inactive)
GI50 [41]: > 100 µM (inactive)
GI50 [42]: > 100 µM (inactive)
GI50 [43]: > 100 µM (inactive)
GI50 [44]: > 100 µM (inactive)
GI50 [45]: > 100 µM (inactive)
GI50 [46]: > 100 µM (inactive)
GI50 [47]: > 100 µM (inactive)
GI50 [48]: > 100 µM (inactive)
GI50 [49]: > 100 µM (inactive)
GI50 [50]: > 100 µM (inactive)
GI50 [51]: > 100 µM (inactive)
GI50 [52]: > 100 µM (inactive)
GI50 [53]: > 100 µM (inactive)
GI50 [54]: > 100 µM (inactive)

O=C1N[C@@H](Cc2ccccc2)C(=O)N2CCC[C@@H]2C(=O)N[C@@H](CCCCCC(=O)[C@@H]2CO2)C(=O)N[C@H]1Cc1ccccc1 [TRAPOXIN B] (cyclo(FF[dP][Aoe]))
GI50 [1]: 0.00294 µM (active)
GI50 [59]: 0.518 µM (active)
GI50 [2]: 0.00265 µM (active)
GI50 [3]: 0.00124 µM (active)
GI50 [4]: 0.389 µM (active)
GI50 [5]: 0.00157 µM (active)
GI50 [6]: 0.0151 µM (active)
GI50 [7]: 0.000778 µM (active)
GI50 [8]: 0.00136 µM (active)
GI50 [9]: 0.0632 µM (active)
GI50 [55]: 0.0343 µM (active)
GI50 [10]: 0.000256 µM (active)
GI50 [11]: 0.0432 µM
GI50 [13]: < 0.000212 µM (active)
GI50 [14]: 0.00574 µM (active)
GI50 [15]: < 0.000212 µM (active)
GI50 [16]: 0.000685 µM (active)
GI50 [17]: 0.019 µM (active)
GI50 [18]: < 0.000212 µM (active)
GI50 [19]: 0.000735 µM (active)
GI50 [20]: 0.000472 µM (active)
GI50 [21]: 0.000597 µM (active)
GI50 [56]: 0.000553 µM (active)
GI50 [22]: 0.161 µM (active)
GI50 [23]: 0.000546 µM (active)
GI50 [24]: 0.000512 µM (active)
GI50 [25]: < 0.000212 µM (active)
GI50 [26]: < 0.000212 µM (active)
GI50 [27]: 0.222 µM (active)
GI50 [57]: 0.011 µM (active)
GI50 [29]: 0.00052 µM (active)
GI50 [30]: 0.0475 µM (active)
GI50 [31]: 0.00122 µM (active)
GI50 [32]: 0.221 µM (active)
GI50 [33]: 0.00197 µM (active)
GI50 [34]: < 0.000212 µM (active)
GI50 [35]: 0.00209 µM (active)
GI50 [36]: 0.000332 µM (active)
GI50 [38]: 0.0119 µM (active)
GI50 [39]: 0.0145 µM (active)
GI50 [40]: 0.000713 µM (active)
GI50 [41]: 0.00116 µM (active)
GI50 [42]: 0.000497 µM (active)
GI50 [43]: 0.05 µM (active)
GI50 [44]: 0.0104 µM (active)
GI50 [45]: 0.103 µM (active)
GI50 [46]: 0.00366 µM (active)
GI50 [48]: 0.000305 µM (active)
GI50 [49]: 0.0034 µM (active)
GI50 [50]: 0.00368 µM (active)
GI50 [51]: 0.0027 µM (active)
GI50 [53]: 0.000435 µM (active)
GI50 [54]: 0.00209 µM (active)
